Measured values: patent US20090181901A1, “COMPOSITIONS AND METHODS TO INCREASE BIOAVAILABILITY OF CAROTENOIDS” (priority 2007, published 2009)

Tests used:
[1] = In vitro stability of lutein in pH 7.0 buffer (UV-VIS degradation ratio); format: physicochemical
Description: 10.0 mg ([…]) lutein in 10 ml was added to a volumetric flask and diluted to volume with THF. In a small beaker, 0.50 g PEO (20) sorbitan monooleate was dissolved in 15.0 g de-ionized water. 1.0 ml lutein THF solution was added into the water solution and sonicated until a clear yellow micro-emulsion was formed.
10.0 mg (0.006 mmol) bilberry extract was added to a second 10 ml volumetric flask and filled to volume with de-ionized water. 1.0 ml bilberry extract solution was transferred to a small beaker and sonicated until a homogeneous solution was obtained. 1.0 ml of the bilberry solution was placed into a 10 ml colorless volumetric flask and filled to volume with sodium phosphate buffer (pH=7.0). The buffered solution was placed into a 37° C. water bath for 5 hours. UV-VIS spectrometery was used to analyze the degradation ratio. All samples were made alike. Similarly, L-cysteine was used in place of bilberry extract.

CaCo-2 cells [2] = assay: Cellular uptake of Lutein and Zeaxanthine in CaCo-2 cells with or without black currant extract; format: in vitro ADME; conditions: for Level observed in cells: 9 mg Lutein+1 mg Zeaxanthine/100 mL; for Absorption in presence of black currant extract (in words): compared with absence of black currant extract; for Factor by which absorption is increased in presence of Black Currant extract: with vs without Black Currant extract
Description: CaCo-2 cells were cultured in Dulbeccos's Modified Eagle Medium (DMEM) containing 20% fetal bovine serum, 1.2% nonessential amino acids, 0.83 mM L-glutamine, 1.2% penicillin-streptomycin and 0.1% mercaptoethanole in an atmosphere of 5% CO2 and 95% air at 37° C.
(§1) Cells were grown in 75 cm^2 culture-flasks (T75) and sub-cultured after one week (every other day washed with PBS buffer, removed with trypsin and transferred to a new culture flask).
(§2) For experiments, cells were seeded in 6 well plates at a density of 3×10^5 cells per well and grown in an atmosphere of 5% CO2 and 95% air at 37° C., 7 to 8 days until confluence was reached. The cells were washed with PBS buffer, incubated with 4 ml medium containing the suspended samples for 30, 60 or 120 minutes.
(§3) After the corresponding incubation time, the cells were washed with PBS buffer and removed using 1 ml of TBME. Cells were sonicated 3 times for 30 seconds, centrifuged for 10 min and the pellets were discarded. The supernatant was used as sample for HPLC (lutein).
Cmax was taken directly from the concentration/time data obtained from the analysis.
The concentration/time data obtained from the analysis were further submitted to non-compartmental calculation of the AUC0-120min using the trapezoidal rule.
(§4) Quantification was performed by external standardization after linear regression analysis.
CaCo-2 cells were incubated with (9 mg Lutein+1 mg Zeaxanthine, see Table 6)/100 mL with or without 160 mg black currant extract/100 mL medium. Incubations were performed at 37° C. for 30, 60 and 120 minutes. At each time point, 3 wells were processed for analysis by collection of the incubation medium and extraction of Lutein/Zeaxanthine absorbed into the cells.

[3] = Cellular uptake of Lutein (free form) in CaCo-2 cells; format: in vitro ADME; conditions: human, 10 mg Lutein/100 mL medium, alone or plus 160 mg bilberry extract or 180 mg Bil/Cys
Description: (§5) CaCo-2 cells were cultured in Dulbeccos's Modified Eagle Medium containing 20% fetal bovine serum, 1.2% nonessential amino acids, 0.83 mM L-glutamine, 1.2% penicillin-streptomycin and 0.1% mercaptoethanole in an atmosphere of 5% CO2 and 95% air at 37° C.
as §1
as §2, with “C.” for “C.,”
as §3, with “(lutein). For luteindipalmitinic-ester the supernatant was hydrolyzed by reflux heating in ethanol/HCl.” for “(lutein).”
Cmax was taken directly from the concentration/time data obtained from the analysis. […]
Quantification was performed by external standardization after linear regression analysis. […]

[4] = Stability of Lutein and Zeaxanthine in incubation medium (control experiment); format: physicochemical; conditions: for Stability in incubation medium: 37° C.; for Breakdown in incubation medium (in words): test assay conditions, 120 minutes at 37° C.
Text: In a control experiment, the stability of the analytes under the experimental conditions was investigated.

CaCo-2 cells [5] = assay: Cellular uptake of Lutein (esterified form) in CaCo-2 cells; format: in vitro ADME; conditions: 20 mg Luteindipalmitinic-ester/100 mL medium, alone or plus 160 mg bilberry extract or 180 mg Bil/Cys; 37° C.; lutein quantified after hydrolysis
Description: as §5, §1
as §2, with “C.” for “C.,”, “minutes. […]” for “minutes.”
as §4
CaCo-2 cells were incubated with 20 mg Luteindipalmitinic-ester/100 mL medium, 20 mg (0.019 mmol) Luteindipalmitinic-ester plus 160 mg bilberry extract (25% anthocyanins, 0.08 mmol)/100 mL medium or 20 mg Luteindipalmitinic-ester plus 180 mg Bil/Cys [equivalent to 162 mg bilberry (25% anthocyanins, 0.081 mmol) and 18 mg (0.149 mmol) L-cysteine] at 37° C. for 30, 60 and 120 minutes. […] After hydrolysis of the luteinester, lutein was quantified in the cells.

[6] = Time 0 min, with BC (160 mg black currant extract/100 mL)
[7] = Time 30 min, with BC (160 mg black currant extract/100 mL)
[8] = Time 60 min, with BC (160 mg black currant extract/100 mL)
[9] = Time 120 min, with BC (160 mg black currant extract/100 mL)
[10] = with BC (160 mg black currant extract/100 mL)
[11] = Time 120 min, slight increase ascribed to evaporation of the medium

Relative cellular uptake (sum of lutein and Zeaxanthine set to 100%) (CaCo-2 cells [2]; 30 min, With Black Currant) | Relative cellular uptake (sum of lutein and Zeaxanthine set to 100%) (CaCo-2 cells [2]; 30 min, Without Black Currant) | Relative cellular uptake (sum of lutein and Zeaxanthine set to 100%) (CaCo-2 cells [2]; 60 min, With Black Currant) | Relative cellular uptake (sum of lutein and Zeaxanthine set to 100%) (CaCo-2 cells [2]; 60 min, Without Black Currant) | Relative cellular uptake (sum of lutein and Zeaxanthine set to 100%) (CaCo-2 cells [2]; 120 min, With Black Currant) | Relative cellular uptake (sum of lutein and Zeaxanthine set to 100%) (CaCo-2 cells [2]; 120 min, Without Black Currant) | Level observed in cells (CaCo-2 cells [2]; [6]) | Level observed in cells (CaCo-2 cells [2]; Time 0 min, without BC) | Level observed in cells (CaCo-2 cells [2]; [7]) | Level observed in cells (CaCo-2 cells [2]; Time 30 min, without BC) | Level observed in cells (CaCo-2 cells [2]; [8]) | Level observed in cells (CaCo-2 cells [2]; Time 60 min, without BC) | Level observed in cells (CaCo-2 cells [2]; [9]) | Level observed in cells (CaCo-2 cells [2]; Time 120 min, without BC) | Absorption in presence of black currant extract (in words) (CaCo-2 cells [2]) | AUC0-120 of cellular uptake (CaCo-2 cells [2]; [10]) | Cmax of cellular uptake (CaCo-2 cells [2]; [10]) | Factor by which absorption is increased in presence of Black Currant extract (CaCo-2 cells [2]) | AUC0-120 of cellular uptake (CaCo-2 cells [2]; without BC) | Cmax of cellular uptake (CaCo-2 cells [2]; without BC) | SMILES | further results
– | – | – | – | – | – | – | – | – | – | – | – | – | – | – | – | – | – | – | – | N[C@@H](CS)C(=O)O [L-Cys, L-Cysteine] | Residual Ratio of lutein ([1]; 0.2 mg (0.17 μmol/ml) L-Cys, pH 7.0, 37° C., 5 hours, blank 86.82): 90.22%; Residual Ratio of lutein ([1]; 1.0 mg (0.8 μmol/ml) L-Cys, 4.3 μg free lutein, phosphate buffer pH 7.0, 37° C., 5 hours, blank (lutein alone) 86.82): 94.52%; Residual Ratio of lutein ([1]; 2.0 mg (1.7 μmol/ml) L-Cys, 4.3 μg free lutein, pH 7.0, 37° C., 5 hours, blank 86.82): 94.47%; Residual Ratio of lutein ([1]; 5.0 mg (4.1 μmol/ml) L-Cys, 4.3 μg free lutein, pH 7.0, 37° C., 5 hours, blank 86.82): 95.41%; Residual Ratio of lutein ([1]; 10.0 mg (8.2 μmol/ml) L-Cys, 4.3 μg free lutein, pH 7.0, 37° C., 5 hours, blank 86.82): 94.74%; Protection of lutein against degradation (in words) ([1]; neutral environmental conditions): remarkable protection; Concentration at which an enhanced protective effect on lutein was noted ([1]; pH 7.0, 37° C., 5 hours): about 4.1 μmol/ml
87.3% | 85.6% | 85.8% | 85.5% | 86.6% | 87.3% | 0 ng/mL | 0 ng/mL | 2120 ng/mL | 776 ng/mL | 2346 ng/mL | 1420 ng/mL | 1897 ng/mL | 1170 ng/mL | better absorption | 226.1 µg·min/mL | 2346 ng/mL | ~2 | 122.3 µg·min/mL | 1420 ng/mL | CC1=C[C@H](O)CC(C)(C)[C@H]1/C=C/C(C)=C/C=C/C(C)=C/C=C/C=C(C)/C=C/C=C(C)/C=C/C1=C(C)C[C@@H](O)CC1(C)C [Lutein, (3R,3′R,6′R)-beta, epsilon-carotene-3,3′-diol] | AUC(0-t) at 10 mg/100 mL ([3]; 37° C., 0-120 min, read-out: Total uptake of Lutein (AUC0-120min, trapezoidal rule) (converted)): 2250 ng·h/mL; Cmax at 10 mg/100 mL ([3]; 37° C., 30, 60, 120 minutes): 1530 ng/mL; Stability in incubation medium ([4]; Time 0 min): 100%; Stability in incubation medium [4, 11]: 108%; Breakdown in incubation medium (in words) [4]: no breakdown
– | – | – | – | – | – | – | – | – | – | – | – | – | – | – | – | – | – | – | – | CCCCCCCCCCCCCCCC(=O)O[C@@H]1CC(C)=C(/C=C/C(C)=C/C=C/C(C)=C/C=C/C=C(C)/C=C/C=C(C)/C=C/[C@H]2C(C)=C[C@H](OC(=O)CCCCCCCCCCCCCCC)CC2(C)C)C(C)(C)C1 [Luteinester, Luteindipalmitinic-ester] | Cmax of cellular uptake of Luteinester (CaCo-2 cells [5]): 530 ng/mL; Total uptake of Luteinester (AUC0-120min, trapezoidal rule) (CaCo-2 cells [5]): 42.2 µg·min/mL
12.7% | 14.4% | 14.2% | 14.5% | 13.4% | 12.7% | 0 ng/mL | 0 ng/mL | 309 ng/mL | 131 ng/mL | 363 ng/mL | 240 ng/mL | 314 ng/mL | 181 ng/mL | better absorption | 35.01 µg·min/mL | 363 ng/mL | ~2 | 20.17 µg·min/mL | 240 ng/mL | CC1=C(/C=C/C(C)=C/C=C/C(C)=C/C=C/C=C(C)/C=C/C=C(C)/C=C/C2=C(C)C[C@@H](O)CC2(C)C)C(C)(C)C[C@H](O)C1 [Zeaxanthine, (3R,3′R)-beta, beta carotene-3,3′-diol] | Absorption of zeaxanthine compared to lutein (in words) (CaCo-2 cells [2]): better absorption as compared to lutein; Stability in incubation medium ([4]; Time 0 min): 100%; Stability in incubation medium [4, 11]: 106%; Breakdown in incubation medium (in words) [4]: no breakdown
